Experimental data reported in patent publication US20240115654A1, “INTRAVENOUS ADMINISTRATION OF ENGINEERED ANTIMICROBIAL AMPHIPHILIC PEPTIDES” (priority 2021, published 2024).
Peptide text beside a SMILES is read from it.

Excerpt: All subjects who met eligibility criteria were confined to the clinical research unit from […] through Day 3. At admission, physical examination, vital signs, 12 lead ECG and weight were obtained, medical and medication history were updated if necessary, safety blood tests (hematology and chemistry), urinalysis, urine drug screen and an alcohol breath test were repeated and a urine pregnancy test was done for women of childbearing potential.
At each dose level, there were 2 sentinel subjects, (1 active, 1 placebo), who were dosed at least 48 hours in advance of the other subjects in their respective group. Following review of safety data, including physical examination, vital signs, and review of adverse events from the first 2 subjects, enrolment in the cohort continued.
A 12-lead ECG was performed on Day 1, within 60 minutes of infusion start (in triplicate), mid-way through the infusion, at the completion of the infusion, 30 minutes after completion of the infusion and at various timepoints following the end of the infusion.
Vital signs were recorded within 60 minutes pre-dose, at the mid-point of the infusion and post dose vitals were assessed at completion of the infusion, 0.5, 1, 2, 3, 4, 6, 9, 12, 24 and 48 hours post dose, after at least 3 minutes of rest in supine position.
Subjects returned to the study center 7 days after dosing, for the termination visit. A full physical examination, vital signs and weight were obtained, concomitant medications were updated if necessary, safety blood specimens (haematology and chemistry, PT and aPTT) and urine were collected for urinalysis and urine drug screening. A serum pregnancy test was done for women of childbearing potential and a 12-lead ECG was performed.
In this study dose limiting toxicity (DLT) was defined as any drug related ≥Grade 3 AEs occurring despite optimal therapeutic interventions (which included but were not limited to allergic/hypersensitivity reactions, dermatological reactions/infusion site reactions, haematological toxicities such as neutropenia, thrombocytopenia and anaemia and clinical chemistry abnormalities) experienced up to Day 7 (Termination Visit).
(§1) All subjects who received any amount of study drug were included in the safety analysis (Safety population).
The study was a double blinded, randomized, placebo-controlled study. The placebo administered was 0.9% sodium chloride.
On Day 1 (day of dosing), subjects were randomly assigned either peptide IV or Placebo IV. At each dose level, there were 2 sentinel subjects, (1 active, 1 placebo), who were dosed at least 48 hours in advance of the other subjects in their respective group. Following review of safety data, including physical examination, vital signs, and review of adverse events from the first 2 subjects, enrolment in the cohort continued. All subjects who met eligibility criteria were confined to the clinical research unit from Day −2 through Day 3. At admission, physical examination, vital signs, 12 lead ECG and weight were obtained, medical and medication history were updated if necessary, safety blood tests (hematology and chemistry), urinalysis, urine drug screen and an alcohol breath test were repeated and a urine pregnancy test was done for women of childbearing potential.
as §1

In the case of `CC(C)[C@H](NC(=O)[C@H](Cc1c[nH]c2ccccc12)NC(=O)[C@H](CCCNC(=N)N)NC(=O)[C@H](CCCNC(=N)N)NC(=O)[C@@H](NC(=O)[C@@H](NC(=O)[C@H](CCCNC(=N)N)NC(=O)[C@@H](NC(=O)[C@@H](NC(=O)[C@H](CCCNC(=N)N)NC(=O)[C@H](CCCNC(=N)N)NC(=O)[C@H](Cc1c[nH]c2ccccc12)NC(=O)[C@@H](NC(=O)[C@H](CCCNC(=N)N)NC(=O)[C@H](CCCNC(=N)N)NC(=O)[C@@H](NC(=O)[C@H](CCCNC(=N)N)NC(=O)[C@H](CCCNC(=N)N)NC(=O)[C@@H](NC(=O)[C@H](Cc1c[nH]c2ccccc12)NC(=O)[C@H](CCCNC(=N)N)NC(=O)[C@@H](N)CCCNC(=N)N)C(C)C)C(C)C)C(C)C)C(C)C)C(C)C)C(C)C)C(C)C)C(=O)N[C@@H](CCCNC(=N)N)C(=O)N[C@@H](CCCNC(=N)N)C(N)=O` [SEQ ID NO: 1] (H-RRWVRRVRRVWRRVVRVVRRWVRR-NH2), the “TEAE severity Grade 5, participants n (%)” value (Pooled SEQ ID NO: 1 (N = 35)) is reported as 0, the “Treatment-related TEAE: Abdominal distension, occurrences m” value (Pooled SEQ ID NO: 1 (N = 35)) is reported as 1 and the “Treatment-related TEAE: Abdominal distension, participants n (%)” value (Pooled SEQ ID NO: 1 (N = 35)) is reported as 1 (2.9%). For the same molecule, the “Treatment-related TEAE: Blood and Lymphatic System Disorders, participants n (%)” value (Pooled SEQ ID NO: 1 (N = 35)) was 0, the “Treatment-related TEAE: Constipation, participants n (%)” value (Pooled SEQ ID NO: 1 (N = 35)) was 0 and the “Treatment-related TEAE: Diarrhea, occurrences m” value (Pooled SEQ ID NO: 1 (N = 35)) was 1. The “Treatment-related TEAE: Diarrhea, participants n (%)” value (Pooled SEQ ID NO: 1 (N = 35)) was 1 (2.9%), the “Treatment-related TEAE: Dizziness, occurrences m” value (Pooled SEQ ID NO: 1 (N = 35)) was 1 and the “Treatment-related TEAE: Dizziness, participants n (%)” value (Pooled SEQ ID NO: 1 (N = 35)) was 1 (2.9%). For the same molecule, the “Treatment-related TEAE: Feeling hot, participants n (%)” value (Pooled SEQ ID NO: 1 (N = 35)) was 0, the “Treatment-related TEAE: Gastrointestinal Disorders, occurrences m” value (Pooled SEQ ID NO: 1 (N = 35)) was 3 and the “Treatment-related TEAE: Gastrointestinal Disorders, participants n (%)” value (Pooled SEQ ID NO: 1 (N = 35)) was 2 (5.7%). The “Treatment-related TEAE: General Disorders and Administration Site Conditions, occurrences m” value (Pooled SEQ ID NO: 1 (N = 35)) was 11, the “Treatment-related TEAE: General Disorders and Administration Site Conditions, participants n (%)” value (Pooled SEQ ID NO: 1 (N = 35)) was 10 (28.6%) and the “Treatment-related TEAE: Headache, occurrences m” value (Pooled SEQ ID NO: 1 (N = 35)) was 1. The “Treatment-related TEAE: Headache, participants n (%)” value (Pooled SEQ ID NO: 1 (N = 35)) was 1 (2.9%), the “Treatment-related TEAE: Infusion related reaction, occurrences m” value (Pooled SEQ ID NO: 1 (N = 35)) was 1 and the “Treatment-related TEAE: Infusion related reaction, participants n (%)” value (Pooled SEQ ID NO: 1 (N = 35)) was 1 (20.0%). For the same molecule, the “Treatment-related TEAE: Infusion site discomfort, occurrences m” value (Pooled SEQ ID NO: 1 (N = 35)) was 1, the “Treatment-related TEAE: Infusion site discomfort, participants n (%)” value (Pooled SEQ ID NO: 1 (N = 35)) was 1 (2.9%) and the “Treatment-related TEAE: Infusion site pain, occurrences m” value (Pooled SEQ ID NO: 1 (N = 35)) was 3. The “Treatment-related TEAE: Infusion site pain, participants n (%)” value (Pooled SEQ ID NO: 1 (N = 35)) was 3 (8.6%), the “Treatment-related TEAE: Infusion site reaction, occurrences m” value (Pooled SEQ ID NO: 1 (N = 35)) was 4 and the “Treatment-related TEAE: Infusion site reaction, participants n (%)” value (Pooled SEQ ID NO: 1 (N = 35)) was 4 (11.4%). For the same molecule, the “Treatment-related TEAE: Infusion site swelling, occurrences m” value (Pooled SEQ ID NO: 1 (N = 35)) was 1, the “Treatment-related TEAE: Infusion site swelling, participants n (%)” value (Pooled SEQ ID NO: 1 (N = 35)) was 1 (2.9%) and the “Treatment-related TEAE: Injury, Poisoning, and Procedural Complications, occurrences m” value (Pooled SEQ ID NO: 1 (N = 35)) was 1. For the same molecule, the “Treatment-related TEAE: Injury, Poisoning, and Procedural Complications, participants n (%)” value (Pooled SEQ ID NO: 1 (N = 35)) was 1 (20.0%), the “Treatment-related TEAE: Macule, occurrences m” value (Pooled SEQ ID NO: 1 (N = 35)) was 1 and the “Treatment-related TEAE: Macule, participants n (%)” value (Pooled SEQ ID NO: 1 (N = 35)) was 1 (2.9%). The “Treatment-related TEAE: Musculoskeletal and Connective Tissue Disorders, occurrences m” value (Pooled SEQ ID NO: 1 (N = 35)) was 1, the “Treatment-related TEAE: Musculoskeletal and Connective Tissue Disorders, participants n (%)” value (Pooled SEQ ID NO: 1 (N = 35)) was 1 (2.9%) and the “Treatment-related TEAE: Myalgia, occurrences m” value (Pooled SEQ ID NO: 1 (N = 35)) was 1. The “Treatment-related TEAE: Myalgia, participants n (%)” value (Pooled SEQ ID NO: 1 (N = 35)) was 1 (2.9%), the “Treatment-related TEAE: Oropharyngeal pain, participants n (%)” value (Pooled SEQ ID NO: 1 (N = 35)) was 0 and the “Treatment-related TEAE: Orthostatic hypotension, occurrences m” value (Pooled SEQ ID NO: 1 (N = 35)) was 1. The “Treatment-related TEAE: Orthostatic hypotension, participants n (%)” value (Pooled SEQ ID NO: 1 (N = 35)) was 1 (2.9%), the “Treatment-related TEAE: Pain in extremity, participants n (%)” value (Pooled SEQ ID NO: 1 (N = 35)) was 0 and the “Treatment-related TEAE: Phlebitis, occurrences m” value (Pooled SEQ ID NO: 1 (N = 35)) was 3. For the same molecule, the “Treatment-related TEAE: Phlebitis, participants n (%)” value (Pooled SEQ ID NO: 1 (N = 35)) was 3 (8.6%), the “Treatment-related TEAE: Respiratory, Thoracic, and Mediastinal disorders, participants n (%)” value (Pooled SEQ ID NO: 1 (N = 35)) was 0 and the “Treatment-related TEAE: Skin and Subcutaneous Tissue Disorders, occurrences m” value (Pooled SEQ ID NO: 1 (N = 35)) was 1. The “Treatment-related TEAE: Skin and Subcutaneous Tissue Disorders, participants n (%)” value (Pooled SEQ ID NO: 1 (N = 35)) was 1 (2.9%), the “Treatment-related TEAE: Thrombocytopenia, participants n (%)” value (Pooled SEQ ID NO: 1 (N = 35)) was 0 and the “Treatment-related TEAE: Vascular Disorders, occurrences m” value (Pooled SEQ ID NO: 1 (N = 35)) was 4. For the same molecule, the “Treatment-related TEAE: Vascular Disorders, participants n (%)” value (Pooled SEQ ID NO: 1 (N = 35)) was 3 (8.6%), the “Treatment-related TEAE: Vessel puncture site erythema, occurrences m” value (Pooled SEQ ID NO: 1 (N = 35)) was 1 and the “Treatment-related TEAE: Vessel puncture site erythema, participants n (%)” value (Pooled SEQ ID NO: 1 (N = 35)) was 1 (2.9%). For the same molecule, the “Treatment-related TEAE: Vessel puncture site pain, occurrences m” value (Pooled SEQ ID NO: 1 (N = 35)) was 1, the “Treatment-related TEAE: Vessel puncture site pain, participants n (%)” value (Pooled SEQ ID NO: 1 (N = 35)) was 3 (2.9%) and the “Treatment-related TEAE: Vomiting, occurrences m” value (Pooled SEQ ID NO: 1 (N = 35)) was 1. For the same molecule, the “Treatment-related TEAE: Vomiting, participants n (%)” value (Pooled SEQ ID NO: 1 (N = 35)) was 1 (2.9%), the “Number of Participants Reporting at least: Onc TEAE Leading to Study Withdrawal, n (%)” value (Pooled active cohorts (N = 35)) was 0 and the “Number of Participants Reporting at least: One Dose-Limiting Toxicity, n (%)” value (Pooled active cohorts (N = 35)) was 0. For the same molecule, the “Number of Participants Reporting at least: One Related TEAE, n (%)” value (Pooled active cohorts (N = 35)) was 13 (37.1%), the “Number of Participants Reporting at least: One Serious TEAE, n (%)” value (Pooled active cohorts (N = 35)) was 0 and the “Number of Participants Reporting at least: One TEAE Leading to Study Drug Discontinuation, n (%)” value (Pooled active cohorts (N = 35)) was 2 (5.7%). For the same molecule, the “Number of Participants Reporting at least: One TEAE with Common Terminology Criteria for Adverse Events (CTCAE) Toxicity ≥ Grade 3, n (%)” value (Pooled active cohorts (N = 35)) was 0, the “Number of Participants Reporting at least: One TEAE, n (%)” value (Pooled active cohorts (N = 35)) was 31 (88.6%) and the “One Related TEAE, m” value (Pooled active cohorts (N = 35)) was 23. The “One TEAE Leading to Study Drug Discontinuation, m” value (Pooled active cohorts (N = 35)) was 4, the “One TEAE, m” value (Pooled active cohorts (N = 35)) was 72 and the “TEAE Severity Grade 1, m” value (Pooled active cohorts (N = 35)) was 64. The “TEAE Severity Grade 1, n (%)” value (Pooled active cohorts (N = 35)) was 30 (85.7%), the “TEAE Severity Grade 2, m” value (Pooled active cohorts (N = 35)) was 8 and the “TEAE Severity Grade 2, n (%)” value (Pooled active cohorts (N = 35)) was 5 (14.3%). The “overall safety and tolerability” value (healthy volunteers, 0.05 to 1 mg/kg, drug concentration below 0.50 mg/mL and dose rate below 25 mg/hour) was “safe and well tolerated” and the “severity of IRRs in relation to maximum dose rate” value (maximum dose rate higher (>25 mg/hr)) was “more severe”.
